Measured values from US20080124718A1, “METHODS OF DIAGNOSING, PREDICTING THERAPEUTIC EFFICACY AND SCREENING FOR NEW THERAPEUTIC AGENTS FOR LEUKEMIA” (Panacea Pharmaceuticals, Inc., priority 2006, published 2008).
Structures can show the parent of a compound that is named as a salt.

Key:
[1] = tested on: gastrointestinal stromal tumor (GIST) cells, which express an activating c-kit mutation; conditions: in vitro; cited from earlier work
[2] = tested on: human aspartyl (asparaginyl) β-hydroxylase (HAAH) mRNA expression; assay: HAAH mRNA expression (qRT-PCR) in patient leukocytes cultured with or without imatinib; type: cell-based; conditions: 1 μM imatinib, 24 hours, vs untreated cells
Text: This assay procedure allows the quantitative comparison of test RNA to a standard curve using single tube TaqMan® reactions.
Analyze as described in Perkin Elmer sequence detection system manual. A standard amplification curve of ASPH-B was obtained previously, to which unknown samples are compared to obtain the number of copies of HAAH mRNA in the sample.
Patient leukocytes were isolated from patient blood samples and grown in culture in the presence or absence of imatinib mesylate. After overnight incubation, qRT-PCR was used to determine human aspartyl (asparaginyl) β-hydroxylase (HAAH) mRNA expression in both treated and untreated cells. Percentage decrease in mRNA expression level is determined by comparing expression levels in treated vs. non-treated leukocytes from each individual patient.
[…]. This percentage change is consistent with a prediction of sensitivity to imatinib mesylate, based on numerous studies done by the present inventors. […].

Cc1ccc(NC(=O)c2ccc(CN3CCN(C)CC3)cc2)cc1Nc1nccc(-c2cccnc2)n1 [imatinib, Imatinib mesylate]
apoptosis [1]: induces apoptosis | proliferation [1]: inhibits proliferation | decrease in HAAH expression after culture in the presence of imatinib ([2]; leukocytes of 27 CML patients (later responders)): 30-75% | reduction in HAAH transcript levels after culture in the presence of imatinib ([2]; leukocytes of the 12 other CML patients (non-responders)): < 25%
